Results reported in PubChem BioAssay (NCI).
Converted amounts (≈) assume the structure as drawn.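 Where inhibition never reached the appropriate level, the endpoint shown equals the highest concentration tested. Otherwise, values were interpolated linearly from a five-concentration, 48-hour dose response in 96-well plates. Abbreviation: GI50, concentration required for 50% inhibition of growth. At the TGI there is no net growth.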 Peptide text beside a SMILES is read from it. * marks the point of attachment. Boc = CC(C)(C)OC(=O)*

What was measured:
Experiment in all cases: NCI-60 cell line screen, 48 h
CAKI-1 renal = system: CAKI-1 renal
DU-145 prostate = system: DU-145 prostate
RPMI-8226 leukemia = system: RPMI-8226 leukemia
ACHN renal = system: ACHN renal
NCI-H23 lung = system: NCI-H23 lung
UACC-62 melanoma = system: UACC-62 melanoma
M14 melanoma = system: M14 melanoma
LOX IMVI melanoma = system: LOX IMVI melanoma
SNB-19 CNS = system: SNB-19 CNS
A549 NSCLC = system: A549 NSCLC
SK-MEL-28 melanoma = system: SK-MEL-28 melanoma
MDA-MB-435 = system: MDA-MB-435
CCRF-CEM leukemia = system: CCRF-CEM leukemia
HOP-92 NSCLC = system: HOP-92 NSCLC
SF-268 CNS = system: SF-268 CNS
HS 578T breast = system: HS 578T breast
UACC-257 melanoma = system: UACC-257 melanoma
OVCAR-8 ovarian = system: OVCAR-8 ovarian
SR leukemia = system: SR leukemia
SW-620 colon = system: SW-620 colon
NCI/ADR-RES ovarian = system: NCI/ADR-RES ovarian
SN12C renal = system: SN12C renal
KM12 colon = system: KM12 colon
RXF 393 renal = system: RXF 393 renal
A498 renal = system: A498 renal
NCI-H226 lung = system: NCI-H226 lung
SF-295 CNS = system: SF-295 CNS
U251 CNS = system: U251 CNS
MDA-MB-231 breast = system: MDA-MB-231 breast
HOP-62 NSCLC = system: HOP-62 NSCLC
MCF7 breast = system: MCF7 breast
SK-MEL-5 melanoma = system: SK-MEL-5 melanoma
OVCAR-5 ovarian = system: OVCAR-5 ovarian
IGROV1 ovarian = system: IGROV1 ovarian
SK-OV-3 ovarian = system: SK-OV-3 ovarian
SF-539 CNS = system: SF-539 CNS
EKVX NSCLC = system: EKVX NSCLC
OVCAR-4 ovarian = system: OVCAR-4 ovarian
BT-549 breast = system: BT-549 breast
HCT-116 colon = system: HCT-116 colon
786-0 renal = system: 786-0 renal
HT29 colon = system: HT29 colon
HCT-15 colon = system: HCT-15 colon
UO-31 renal = system: UO-31 renal
NCI-H522 lung = system: NCI-H522 lung
SK-MEL-2 melanoma = system: SK-MEL-2 melanoma
COLO 205 colon = system: COLO 205 colon
MOLT-4 leukemia = system: MOLT-4 leukemia
T-47D breast = system: T-47D breast
K-562 leukemia = system: K-562 leukemia
TK-10 renal = system: TK-10 renal
NCI-H460 lung = system: NCI-H460 lung
SNB-75 CNS = system: SNB-75 CNS
PC-3 prostate = system: PC-3 prostate
MALME-3M melanoma = system: MALME-3M melanoma
OVCAR-3 ovarian = system: OVCAR-3 ovarian

**Q.** With `Cc1ccc(NC(=O)COc2ccc(Cl)cc2)cc1Cl` as the compound, how does the TGI (CAKI-1 renal) read?
**A.** The TGI was 81.9 µM.

**Q.** And the TGI (DU-145 prostate)?
**A.** The TGI was > 100 µM.

**Q.** And the TGI (RPMI-8226 leukemia)?
**A.** The TGI was > 100 µM.

**Q.** What about the TGI (ACHN renal) of the same compound?
**A.** Its TGI is > 100 µM.

**Q.** And the TGI (NCI-H23 lung)?
**A.** The TGI was 74.9 µM.

**Q.** What about the TGI (UACC-62 melanoma) of the same compound?
**A.** The TGI was > 100 µM.

**Q.** What about the TGI (M14 melanoma) of the same compound?
**A.** The TGI was > 100 µM.

**Q.** And the TGI (LOX IMVI melanoma)?
**A.** The TGI was > 100 µM.

**Q.** What about the TGI (SNB-19 CNS) of the same compound?
**A.** Its TGI is > 100 µM.

**Q.** What about the TGI (A549 NSCLC) of the same compound?
**A.** Its TGI is > 100 µM.

**Q.** And the TGI (SK-MEL-28 melanoma)?
**A.** Its TGI is > 100 µM.

**Q.** And the TGI (MDA-MB-435)?
**A.** The TGI was > 100 µM.

**Q.** What about the TGI (CCRF-CEM leukemia) of the same compound?
**A.** The TGI was 85.9 µM.

**Q.** And the TGI (HOP-92 NSCLC)?
**A.** The TGI was > 100 µM.

**Q.** And the TGI (SF-268 CNS)?
**A.** The TGI was > 100 µM.

**Q.** What about the TGI (HS 578T breast) of the same compound?
**A.** The TGI was > 100 µM.

**Q.** And the TGI (UACC-257 melanoma)?
**A.** Its TGI is > 100 µM.

**Q.** And the TGI (OVCAR-8 ovarian)?
**A.** The TGI was > 100 µM.

**Q.** And the TGI (SR leukemia)?
**A.** Its TGI is 69.7 µM.

**Q.** What about the TGI (SW-620 colon) of the same compound?
**A.** Its TGI is > 100 µM.

**Q.** What about the TGI (NCI/ADR-RES ovarian) of the same compound?
**A.** Its TGI is > 100 µM.

**Q.** And the TGI (SN12C renal)?
**A.** Its TGI is > 100 µM.

**Q.** And the TGI (KM12 colon)?
**A.** The TGI was > 100 µM.

**Q.** And the TGI (RXF 393 renal)?
**A.** Its TGI is > 100 µM.

**Q.** What about the TGI (A498 renal) of the same compound?
**A.** Its TGI is > 100 µM.

**Q.** What about the TGI (NCI-H226 lung) of the same compound?
**A.** The TGI was > 100 µM.

**Q.** What about the TGI (SF-295 CNS) of the same compound?
**A.** The TGI was > 100 µM.

**Q.** What about the TGI (U251 CNS) of the same compound?
**A.** Its TGI is > 100 µM.

**Q.** What about the TGI (MDA-MB-231 breast) of the same compound?
**A.** Its TGI is 59.7 µM.

**Q.** What about the TGI (HOP-62 NSCLC) of the same compound?
**A.** Its TGI is > 100 µM.

**Q.** And the TGI (MCF7 breast)?
**A.** The TGI was > 100 µM.

**Q.** And the TGI (SK-MEL-5 melanoma)?
**A.** Its TGI is > 100 µM.

**Q.** And the TGI (OVCAR-5 ovarian)?
**A.** The TGI was > 100 µM.

**Q.** What about the TGI (IGROV1 ovarian) of the same compound?
**A.** Its TGI is > 100 µM.

**Q.** What about the TGI (SK-OV-3 ovarian) of the same compound?
**A.** The TGI was > 100 µM.

**Q.** What about the TGI (SF-539 CNS) of the same compound?
**A.** The TGI was > 100 µM.

**Q.** And the TGI (EKVX NSCLC)?
**A.** The TGI was > 100 µM.

**Q.** And the TGI (OVCAR-4 ovarian)?
**A.** The TGI was > 100 µM.

**Q.** And the TGI (BT-549 breast)?
**A.** The TGI was > 100 µM.

**Q.** And the TGI (HCT-116 colon)?
**A.** Its TGI is > 100 µM.

**Q.** And the TGI (786-0 renal)?
**A.** Its TGI is > 100 µM.

**Q.** And the TGI (HT29 colon)?
**A.** Its TGI is > 100 µM.

**Q.** And the TGI (HCT-15 colon)?
**A.** The TGI was > 100 µM.

**Q.** What about the TGI (UO-31 renal) of the same compound?
**A.** The TGI was > 100 µM.

**Q.** And the TGI (NCI-H522 lung)?
**A.** The TGI was > 100 µM.

**Q.** What about the TGI (SK-MEL-2 melanoma) of the same compound?
**A.** The TGI was > 100 µM.

**Q.** And the TGI (COLO 205 colon)?
**A.** The TGI was > 100 µM.

**Q.** And the TGI (MOLT-4 leukemia)?
**A.** The TGI was > 100 µM.

**Q.** And the TGI (T-47D breast)?
**A.** Its TGI is > 100 µM.

**Q.** And the TGI (K-562 leukemia)?
**A.** Its TGI is > 100 µM.

**Q.** And the TGI (TK-10 renal)?
**A.** The TGI was > 100 µM.

**Q.** And the TGI (NCI-H460 lung)?
**A.** Its TGI is > 100 µM.

**Q.** What about the TGI (SNB-75 CNS) of the same compound?
**A.** Its TGI is > 100 µM.

**Q.** And the TGI (PC-3 prostate)?
**A.** Its TGI is > 100 µM.

**Q.** What about the TGI (MALME-3M melanoma) of the same compound?
**A.** The TGI was > 100 µM.

**Q.** What about the TGI (OVCAR-3 ovarian) of the same compound?
**A.** The TGI was > 100 µM.

**Q.** Which GI50 (UACC-62 melanoma) does the source give for `CC(C)C(NC(=O)OC(C)(C)C)C(=O)N1CCCC1C(=O)O` (stereo not drawn) (Boc-Val-Pro-OH; configuration not given here) here?
**A.** The GI50 was 94.1 µg/mL (≈ 299 µM).

**Q.** What about the GI50 (HS 578T breast) of the same compound?
**A.** The GI50 was 36.1 µg/mL (≈ 115 µM).
